This note sets out measurements from US20240109917A1 (ACTELION PHARMACEUTICALS LTD, priority 2020, published 2024).

In general, IC50 refers to the concentration needed to halve the response being measured. Low readings indicate greater potency in that assay, high ones weaker potency in that assay.

The assay concerns the target VEGFR2, unphosphorylated (Homo sapiens (Human), UniProt P35968). The assay is described as follows: VEGFR ADP GLO Assay. It counts as biochemical.

VEGFR2, unphosphorylated, sequence (P35968 20-1356): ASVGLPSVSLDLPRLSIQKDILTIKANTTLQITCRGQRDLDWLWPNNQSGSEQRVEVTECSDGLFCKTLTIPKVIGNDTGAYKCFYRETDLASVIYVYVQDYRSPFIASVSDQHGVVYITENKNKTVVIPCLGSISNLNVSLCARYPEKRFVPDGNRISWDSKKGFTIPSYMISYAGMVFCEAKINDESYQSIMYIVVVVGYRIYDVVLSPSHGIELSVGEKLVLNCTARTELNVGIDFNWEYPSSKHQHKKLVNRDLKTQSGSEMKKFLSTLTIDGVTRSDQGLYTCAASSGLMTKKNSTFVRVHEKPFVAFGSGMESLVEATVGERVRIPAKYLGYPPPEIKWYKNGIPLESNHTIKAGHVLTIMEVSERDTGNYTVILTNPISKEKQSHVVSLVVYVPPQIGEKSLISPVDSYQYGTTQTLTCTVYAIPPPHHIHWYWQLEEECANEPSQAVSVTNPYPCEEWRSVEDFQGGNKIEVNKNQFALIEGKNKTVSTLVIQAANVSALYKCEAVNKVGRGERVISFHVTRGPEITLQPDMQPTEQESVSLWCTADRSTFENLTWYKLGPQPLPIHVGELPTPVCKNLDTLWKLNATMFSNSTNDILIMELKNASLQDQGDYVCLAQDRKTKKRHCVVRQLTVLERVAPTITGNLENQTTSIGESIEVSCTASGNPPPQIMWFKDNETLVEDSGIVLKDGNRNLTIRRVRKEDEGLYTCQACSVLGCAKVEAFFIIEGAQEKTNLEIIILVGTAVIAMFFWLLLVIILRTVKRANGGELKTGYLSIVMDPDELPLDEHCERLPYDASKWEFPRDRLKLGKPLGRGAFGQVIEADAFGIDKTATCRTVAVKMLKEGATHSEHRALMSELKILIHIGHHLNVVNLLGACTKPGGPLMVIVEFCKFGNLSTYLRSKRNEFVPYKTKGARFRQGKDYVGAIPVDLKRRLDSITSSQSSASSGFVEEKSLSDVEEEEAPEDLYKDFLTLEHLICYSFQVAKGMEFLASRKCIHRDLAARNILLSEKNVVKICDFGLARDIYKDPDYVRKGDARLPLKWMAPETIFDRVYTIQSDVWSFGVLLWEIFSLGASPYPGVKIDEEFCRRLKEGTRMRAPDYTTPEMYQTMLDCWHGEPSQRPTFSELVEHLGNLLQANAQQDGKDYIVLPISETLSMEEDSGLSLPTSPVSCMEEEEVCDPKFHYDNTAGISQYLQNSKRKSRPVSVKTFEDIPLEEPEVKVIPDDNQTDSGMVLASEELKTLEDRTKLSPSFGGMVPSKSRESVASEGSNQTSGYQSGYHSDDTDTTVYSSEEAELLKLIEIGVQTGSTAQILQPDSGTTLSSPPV

In turn, `Cc1ncc(NC(=O)CN2CCCC2(C)C)cc1NC(=O)c1cnn2cc(-c3cnn4c3COCC4)sc12` [Example 458, 2-(6,7-dihydro-4H-pyrazolo[5,1-c][1,4]oxazin-3-yl)-N-(5-(2-(2,2-dimethylpyrrolidin-1-yl)acetamido)-2-methylpyridin-3-yl)pyrazolo[5,1-b]thiazole-7-carboxamide] showed an IC50 of over 7.5 µM.

The molecule `Cc1ncc(C(=O)NCCN2CC3CCC2CC3)cc1NC(=O)c1cnn2cc(-c3cnn4c3COCC4)sc12` [Example 459, N-(5-((2-(2-azabicyclo[2.2.2]octan-2-yl)ethyl)carbamoyl)-2-methylpyridin-3-yl)-2-(6,7-dihydro-4H-pyrazolo[5,1-c][1,4]oxazin-3-yl)pyrazolo[5,1-b]thiazole-7-carboxamide] displayed an IC50 of over 7.5 µM. The same measure for `Cc1ncc(C(=O)NCCN2CCCC2(C)C)cc1NC(=O)c1cnn2cc(-c3cnn4c3OCCC4)sc12` [Example 460, 2-(6,7-dihydro-5H-pyrazolo[5,1-b][1,3]oxazin-3-yl)-N-(5-((2-(2,2-dimethylpyrrolidin-1-yl)ethyl)carbamoyl)-2-methylpyridin-3-yl)pyrazolo[5,1-b]thiazole-7-carboxamide]: over 7.5 µM. In the case of `Cc1ncc(C(=O)NCCN2CCCC23CCC3)cc1NC(=O)c1cnn2cc(-c3cnn4c3CCC4)sc12` [Example 461, N-(5-((2-(5-azaspiro[3.4]octan-5-yl)ethyl)carbamoyl)-2-methylpyridin-3-yl)-2-(5,6-dihydro-4H-pyrrolo[1,2-b]pyrazol-3-yl)pyrazolo[5,1-b]thiazole-7-carboxamide] it was 3.35 µM; in that of `COCCn1cc(-c2cn3ncc(C(=O)Nc4cc(NC(=O)CCC5CCCN5C)cnc4C)c3s2)cn1` (stereo not shown) [Example 462, 2-(1-(2-methoxyethyl)-1H-pyrazol-4-yl)-N-(2-methyl-5-(3-(1-methylpyrrolidin-2-yl)propanamido)pyridin-3-yl)pyrazolo[5,1-b]thiazole-7-carboxamide], over 7.5 µM. The same measure for `COCCn1cc(-c2cn3ncc(C(=O)Nc4cc(NC(=O)CCC5CCCN5C(C)C)cnc4C)c3s2)cn1` (stereo not shown) [Example 463, N-(5-(3-(1-isopropylpyrrolidin-2-yl)propanamido)-2-methylpyridin-3-yl)-2-(1-(2-methoxyethyl)-1H-pyrazol-4-yl)pyrazolo[5,1-b]thiazole-7-carboxamide]: over 7.5 µM; for `Cc1ncc(NC(=O)C[C@@H]2CCN(C(C)C)C2)cc1NC(=O)c1cnn2cc(-c3cnn(C)c3)sc12` [Example 464, (S)—N-(5-(2-(1-isopropylpyrrolidin-3-yl)acetamido)-2-methylpyridin-3-yl)-2-(1-methyl-1H-pyrazol-4-yl)pyrazolo[5,1-b]thiazole-7-carboxamide]: over 7.5 µM; for `Cc1ncc(NC(=O)C[C@H]2CCN(C(C)C)C2)cc1NC(=O)c1cnn2cc(-c3cnn(C)c3)sc12` [Example 465, (R)—N-(5-(2-(1-isopropylpyrrolidin-3-yl)acetamido)-2-methylpyridin-3-yl)-2-(1-methyl-1H-pyrazol-4-yl)pyrazolo[5,1-b]thiazole-7-carboxamide]: over 7.5 µM. In turn, `COCCn1cc(-c2cn3ncc(C(=O)Nc4cc(NC(=O)C[C@@H]5CCN(C(C)C)C5)cnc4C)c3s2)cn1` [Example 466, (S)—N-(5-(2-(1-isopropylpyrrolidin-3-yl)acetamido)-2-methylpyridin-3-yl)-2-(1-(2-methoxyethyl)-1H-pyrazol-4-yl)pyrazolo[5,1-b]thiazole-7-carboxamide] registered an IC50 of over 7.5 µM.

Regarding `COCCn1cc(-c2cn3ncc(C(=O)Nc4cc(NC(=O)CN5CCC5C(C)C)cnc4C)c3s2)cn1` (stereo not shown) [Example 467, N-(5-(2-(2-isopropylazetidin-1-yl)acetamido)-2-methylpyridin-3-yl)-2-(1-(2-methoxyethyl)-1H-pyrazol-4-yl)pyrazolo[5,1-b]thiazole-7-carboxamide], the IC50 was over 7.5 µM. In the case of `Cc1ncc(NC(=O)CC2CN(C)C2)cc1NC(=O)c1cnn2cc(-c3cnn4c3CCC4)sc12` [Example 468, 2-(5,6-dihydro-4H-pyrrolo[1,2-b]pyrazol-3-yl)-N-(2-methyl-5-(2-(1-methylazetidin-3-yl)acetamido)pyridin-3-yl)pyrazolo[5,1-b]thiazole-7-carboxamide] it was over 7.5 µM; in that of `Cc1ncc(C(=O)NCC2CCCN2C)cc1NC(=O)c1cnn2cc(-c3cnn4c3CCC4)sc12` (stereo not shown) [Example 469, 2-(5,6-dihydro-4H-pyrrolo[1,2-b]pyrazol-3-yl)-N-(2-methyl-5-(((1-methylpyrrolidin-2-yl)methyl)carbamoyl)pyridin-3-yl)pyrazolo[5,1-b]thiazole-7-carboxamide], over 7.5 µM; in that of `Cc1ncc(C(=O)NCC2CCCN2C)cc1NC(=O)c1cnn2cc(-c3cnn4c3OCCC4)sc12` (stereo not shown) [Example 470, 2-(6,7-dihydro-5H-pyrazolo[5,1-b][1,3]oxazin-3-yl)-N-(2-methyl-5-(((1-methylpyrrolidin-2-yl)methyl)carbamoyl)pyridin-3-yl)pyrazolo[5,1-b]thiazole-7-carboxamide], over 7.5 µM.

`Cc1ncc(NC(=O)CNC2CCC2)cc1NC(=O)c1cnn2cc(-c3cnn4c3CCC4)sc12` [Example 471, N-(5-(2-(cyclobutylamino)acetamido)-2-methylpyridin-3-yl)-2-(5,6-dihydro-4H-pyrrolo[1,2-b]pyrazol-3-yl)pyrazolo[5,1-b]thiazole-7-carboxamide] gave an IC50 of over 7.5 µM. Take `Cc1ncc(C(=O)NCCN2CCCC23CCC3)cc1NC(=O)c1cnn2cc(-c3cnn4c3COCC4)sc12` [Example 472, N-(5-((2-(5-azaspiro[3.4]octan-5-yl)ethyl)carbamoyl)-2-methylpyridin-3-yl)-2-(6,7-dihydro-4H-pyrazolo[5,1-c][1,4]oxazin-3-yl)pyrazolo[5,1-b]thiazole-7-carboxamide]: the IC50 is over 7.5 µM. In the case of `Cc1ncc(NC(=O)CN2CCC[C@@H]2C)cc1NC(=O)c1cnn2cc(-c3cnn4c3COCC4)sc12` [Example 473, (S)-2-(6,7-dihydro-4H-pyrazolo[5,1-c][1,4]oxazin-3-yl)-N-(2-methyl-5-(2-(2-methylpyrrolidin-1-yl)acetamido)pyridin-3-yl)pyrazolo[5,1-b]thiazole-7-carboxamide] it was over 7.5 µM; in that of `Cc1ncc(NC(=O)CN2CCC3(CC3)C2)cc1NC(=O)c1cnn2cc(-c3cnn4c3COCC4)sc12` [Example 474, N-(5-(2-(5-azaspiro[2.4]heptan-5-yl)acetamido)-2-methylpyridin-3-yl)-2-(6,7-dihydro-4H-pyrazolo[5,1-c][1,4]oxazin-3-yl)pyrazolo[5,1-b]thiazole-7-carboxamide], over 7.5 µM; in that of `Cc1ncc(NC(=O)CN2CCC23CCC3)cc1NC(=O)c1cnn2cc(-c3cnn4c3COCC4)sc12` [Example 475, N-(5-(2-(1-azaspiro[3.3]heptan-1-yl)acetamido)-2-methylpyridin-3-yl)-2-(6,7-dihydro-4H-pyrazolo[5,1-c][1,4]oxazin-3-yl)pyrazolo[5,1-b]thiazole-7-carboxamide], over 7.5 µM. In the case of `Cc1ncc(NC(=O)CN2CC(C)(C)C2)cc1NC(=O)c1cnn2cc(-c3cnn4c3COCC4)sc12` [Example 476, 2-(6,7-dihydro-4H-pyrazolo[5,1-c][1,4]oxazin-3-yl)-N-(5-(2-(3,3-dimethylazetidin-1-yl)acetamido)-2-methylpyridin-3-yl)pyrazolo[5,1-b]thiazole-7-carboxamide] it was over 7.5 µM; in that of `Cc1ncc(C(=O)NCCN2CC3CCC2CC3)cc1NC(=O)c1cnn2cc(-c3cnn4c3OCCC4)sc12` [Example 477, N-(5-((2-(2-azabicyclo[2.2.2]octan-2-yl)ethyl)carbamoyl)-2-methylpyridin-3-yl)-2-(6,7-dihydro-5H-pyrazolo[5,1-b][1,3]oxazin-3-yl)pyrazolo[5,1-b]thiazole-7-carboxamide], over 7.5 µM; in that of `Cc1ncc(C(=O)NCCN2CCCC23CCC3)cc1NC(=O)c1cnn2cc(-c3cnn4c3OCCC4)sc12` [Example 478, N-(5-((2-(5-azaspiro[3.4]octan-5-yl)ethyl)carbamoyl)-2-methylpyridin-3-yl)-2-(6,7-dihydro-5H-pyrazolo[5,1-b][1,3]oxazin-3-yl)pyrazolo[5,1-b]thiazole-7-carboxamide], 2.56 µM.

`Cc1ncc(C(=O)NCCN2CC(C)(C)C2)cc1NC(=O)c1cnn2cc(-c3cnn4c3OCCC4)sc12` [Example 479, 2-(6,7-dihydro-5H-pyrazolo[5,1-b][1,3]oxazin-3-yl)-N-(5-((2-(3,3-dimethylazetidin-1-yl)ethyl)carbamoyl)-2-methylpyridin-3-yl)pyrazolo[5,1-b]thiazole-7-carboxamide] showed an IC50 of over 7.5 µM. The same measure for `Cc1ncc(C(=O)NCCN2CC3CCC2CC3)cc1NC(=O)c1cnn2cc(-c3cnn4c3CCC4)sc12` [Example 480, N-(5-((2-(2-azabicyclo[2.2.2]octan-2-yl)ethyl)carbamoyl)-2-methylpyridin-3-yl)-2-(5,6-dihydro-4H-pyrrolo[1,2-b]pyrazol-3-yl)pyrazolo[5,1-b]thiazole-7-carboxamide]: over 7.5 µM; for `Cc1ncc(C(=O)NCCN2CCCC2(C)C)cc1NC(=O)c1cnn2cc(-c3cnn4c3CCC4)sc12` [Example 481, 2-(5,6-dihydro-4H-pyrrolo[1,2-b]pyrazol-3-yl)-N-(5-((2-(2,2-dimethylpyrrolidin-1-yl)ethyl)carbamoyl)-2-methylpyridin-3-yl)pyrazolo[5,1-b]thiazole-7-carboxamide]: over 7.5 µM. The molecule `Cc1ncc(C(=O)NCCN2CC(C)(C)C2)cc1NC(=O)c1cnn2cc(-c3cnn4c3CCC4)sc12` [Example 482, 2-(5,6-dihydro-4H-pyrrolo[1,2-b]pyrazol-3-yl)-N-(5-((2-(3,3-dimethylazetidin-1-yl)ethyl)carbamoyl)-2-methylpyridin-3-yl)pyrazolo[5,1-b]thiazole-7-carboxamide] showed an IC50 of over 7.5 µM.
